pIC50: −log10 of the molar value.

The target in this test is Ephrin type-A receptor 2 (Mus musculus, UniProt Q03145). Description: Displacement of biotinylated Fc-tagged ephrin-A1 from C/N-terminal 6-His tagged mouse recombinant EphA2 (Ala22 to Ala535 residues) preincubated for 1 hr followed by ephrin-A1-Fc addition and measured after 4 to 5 hrs by ELISA assay. A general note: An ELISA detects its analyte on a solid surface through an enzyme-linked reagent.
Chain of Ephrin type-A receptor 2 (Q03145 whole entry): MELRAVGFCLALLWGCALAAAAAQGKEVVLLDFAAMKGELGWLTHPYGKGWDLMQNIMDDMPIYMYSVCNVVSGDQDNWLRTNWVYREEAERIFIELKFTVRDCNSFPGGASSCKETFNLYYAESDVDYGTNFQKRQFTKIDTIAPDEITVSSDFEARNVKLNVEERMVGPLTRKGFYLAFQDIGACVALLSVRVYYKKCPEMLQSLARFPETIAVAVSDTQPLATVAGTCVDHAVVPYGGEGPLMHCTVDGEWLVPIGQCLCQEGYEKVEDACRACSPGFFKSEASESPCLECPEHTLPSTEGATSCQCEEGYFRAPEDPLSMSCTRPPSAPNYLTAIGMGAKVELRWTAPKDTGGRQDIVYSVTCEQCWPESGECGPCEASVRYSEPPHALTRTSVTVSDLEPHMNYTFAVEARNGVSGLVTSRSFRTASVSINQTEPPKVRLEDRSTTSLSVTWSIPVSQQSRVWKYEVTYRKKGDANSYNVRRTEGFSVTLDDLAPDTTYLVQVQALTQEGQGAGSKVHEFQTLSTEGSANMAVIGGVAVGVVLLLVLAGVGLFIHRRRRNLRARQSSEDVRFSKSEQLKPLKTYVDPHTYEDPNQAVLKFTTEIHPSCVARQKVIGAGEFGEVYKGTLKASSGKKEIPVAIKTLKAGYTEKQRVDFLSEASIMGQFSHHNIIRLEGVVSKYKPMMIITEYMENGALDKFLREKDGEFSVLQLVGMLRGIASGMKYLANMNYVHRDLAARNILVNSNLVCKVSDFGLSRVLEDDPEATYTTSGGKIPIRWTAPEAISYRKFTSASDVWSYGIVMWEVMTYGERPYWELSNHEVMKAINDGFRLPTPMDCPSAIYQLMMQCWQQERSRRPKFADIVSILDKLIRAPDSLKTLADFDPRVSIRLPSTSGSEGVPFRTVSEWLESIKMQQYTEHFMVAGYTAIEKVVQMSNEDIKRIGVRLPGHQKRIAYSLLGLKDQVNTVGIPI
Take `C[C@H](CCC(=O)N[C@H](CC(=O)O)Cc1cn(S(=O)(=O)c2cccc(C#N)c2)c2ccccc12)[C@H]1CC[C@H]2[C@@H]3CC=C4C[C@@H](O)CC[C@]4(C)[C@H]3CC[C@]12C`: the pIC50 (usually −log10 of the IC50, conventionally taken in molar units) was 4.62. In the case of `Cc1cccc(S(=O)(=O)n2cc(C[C@@H](CC(=O)O)NC(=O)CC[C@@H](C)[C@H]3CC[C@H]4[C@@H]5CC=C6C[C@@H](O)CC[C@]6(C)[C@H]5CC[C@]34C)c3ccccc32)c1` it was 4.62; in that of `C[C@H](CCC(=O)N[C@H](CC(=O)O)Cc1cn(S(=O)(=O)c2ccc(F)cc2)c2ccccc12)[C@H]1CC[C@H]2[C@@H]3CC=C4C[C@@H](O)CC[C@]4(C)[C@H]3CC[C@]12C`, 5.09. On to `C[C@H](CCC(=O)N[C@H](CC(=O)O)Cc1cn(S(=O)(=O)c2cccc(C(F)(F)F)c2)c2ccccc12)[C@H]1CC[C@H]2[C@@H]3CC=C4C[C@@H](O)CC[C@]4(C)[C@H]3CC[C@]12C`, for which the negative logarithm of the IC50 (pIC50) was 4.92.

With `C[C@H](CCC(=O)N[C@H](CC(=O)O)Cc1cn(S(=O)(=O)c2ccsc2)c2ccccc12)[C@H]1CC[C@H]2[C@@H]3CC=C4C[C@@H](O)CC[C@]4(C)[C@H]3CC[C@]12C`, the pIC50 was 5.26.

As to `C[C@H](CCC(=O)N[C@H](CC(=O)O)Cc1cn(S(=O)(=O)c2cccc([N+](=O)[O-])c2)c2ccccc12)[C@H]1CC[C@H]2[C@@H]3CC=C4C[C@@H](O)CC[C@]4(C)[C@H]3CC[C@]12C`, the pIC50 was 4.42. With `C[C@H](CCC(=O)N[C@H](CC(=O)O)Cc1cn(S(=O)(=O)c2ccc(N)cc2)c2ccccc12)[C@H]1CC[C@H]2[C@@H]3CC=C4C[C@@H](O)CC[C@]4(C)[C@H]3CC[C@]12C` the figure was 5.33; with `Cc1ccc(S(=O)(=O)n2cc(C[C@@H](CC(=O)O)NC(=O)CC[C@@H](C)[C@H]3CC[C@H]4[C@@H]5CC=C6C[C@@H](O)CC[C@]6(C)[C@H]5CC[C@]34C)c3ccccc32)cc1`, 5.08; with `C[C@H](CCC(=O)N[C@H](CC(=O)O)Cc1cn(S(=O)(=O)c2ccc([N+](=O)[O-])cc2)c2ccccc12)[C@H]1CC[C@H]2[C@@H]3CC=C4C[C@@H](O)CC[C@]4(C)[C@H]3CC[C@]12C`, 5.44.

With `C[C@H](CCC(=O)N[C@H](CC(=O)O)Cc1cn(S(=O)(=O)c2cccc(-c3ccccc3)c2)c2ccccc12)[C@H]1CC[C@H]2[C@@H]3CC=C4C[C@@H](O)CC[C@]4(C)[C@H]3CC[C@]12C`, the pIC50 is 4.80. With `C[C@H](CCC(=O)N[C@H](CC(=O)O)Cc1cn(S(=O)(=O)c2ccc(C#N)cc2)c2ccccc12)[C@H]1CC[C@H]2[C@@H]3CC=C4C[C@@H](O)CC[C@]4(C)[C@H]3CC[C@]12C` the figure was 5.00; with `C[C@H](CCC(=O)N[C@H](CC(=O)O)Cc1cn(S(=O)(=O)c2ccc(-c3ccccc3)cc2)c2ccccc12)[C@H]1CC[C@H]2[C@@H]3CC=C4C[C@@H](O)CC[C@]4(C)[C@H]3CC[C@]12C`, 4.70.

Turning to `C[C@H](CCC(=O)N[C@H](CC(=O)O)Cc1cn(S(=O)(=O)c2cccnc2)c2ccccc12)[C@H]1CC[C@H]2[C@@H]3CC=C4C[C@@H](O)CC[C@]4(C)[C@H]3CC[C@]12C`, the negative-log IC50 (pIC50) is 4.80. In the case of `C[C@H](CCC(=O)N[C@H](CC(=O)O)Cc1cn(S(=O)(=O)c2ccoc2)c2ccccc12)[C@H]1CC[C@H]2[C@@H]3CC=C4C[C@@H](O)CC[C@]4(C)[C@H]3CC[C@]12C` it was 5.16; in that of `C[C@H](CCC(=O)N[C@H](CC(=O)O)Cc1cn(S(=O)(=O)c2cccc(N)c2)c2ccccc12)[C@H]1CC[C@H]2[C@@H]3CC=C4C[C@@H](O)CC[C@]4(C)[C@H]3CC[C@]12C`, 5.25; in that of `C[C@H](CCC(=O)N[C@H](CC(=O)O)Cc1cn(S(=O)(=O)c2cccc(F)c2)c2ccccc12)[C@H]1CC[C@H]2[C@@H]3CC=C4C[C@@H](O)CC[C@]4(C)[C@H]3CC[C@]12C`, 4.54.
